Measured values taken from patent publication US11726101B2, “Adrenomedullin assays and methods for determining mature adrenomedullin” (SPHINGOTEC GMBH, priority 2011, dated 2023).

Tests used:
[1] = Stability of human Adrenomedullin in human Citrate plasma at 24° C., quantified by hADM immunoassay (MR-ADM/CT-ADM); format: in vitro ADME; conditions: for Average ADM recovery (N = 5) / Loss of immune reactivity %/h: human Citrate plasma; for Average ADM recovery (N = 5): 10 ng ADM/ml; for Average loss of immune reactivity: average over time points, human plasma, MR-ADM/CT-ADM sandwich assay
Experimental: At selected time points, aliquots were frozen at −20° C.

[2] = using other assay methods (Hinson 2000); cited from earlier work

Compound: CC[C@H](C)[C@H](NC(=O)[C@H](CCC(N)=O)NC(=O)[C@H](Cc1c[nH]cn1)NC(=O)[C@H](C)NC(=O)[C@H](CC(C)C)NC(=O)[C@H](CCCCN)NC(=O)[C@H](CCC(N)=O)NC(=O)[C@@H](NC(=O)[C@@H](NC(=O)[C@@H]1CSSC[C@H](NC(=O)CNC(=O)[C@H](Cc2ccccc2)NC(=O)[C@H](CO)NC(=O)[C@H](CCCNC(=N)N)NC(=O)[C@H](CC(C)C)NC(=O)CNC(=O)[C@H](CCC(N)=O)NC(=O)[C@H](Cc2ccccc2)NC(=O)[C@H](CC(N)=O)NC(=O)[C@H](CC(N)=O)NC(=O)[C@H](CCSC)NC(=O)[C@H](CO)NC(=O)[C@H](CCC(N)=O)NC(=O)[C@H](CCCNC(=N)N)NC(=O)[C@@H](N)Cc2ccc(O)cc2)C(=O)N[C@@H](CCCNC(=N)N)C(=O)N[C@@H](Cc2ccccc2)C(=O)NCC(=O)N[C@@H]([C@@H](C)O)C(=O)N1)[C@@H](C)O)C(C)C)C(=O)N[C@@H](Cc1ccc(O)cc1)C(=O)N[C@@H](CCC(N)=O)C(=O)N[C@@H](Cc1ccccc1)C(=O)N[C@H](C(=O)N[C@@H](CC(=O)O)C(=O)N[C@@H](CCCCN)C(=O)N[C@@H](CC(=O)O)C(=O)N[C@@H](CCCCN)C(=O)N[C@@H](CC(=O)O)C(=O)N[C@@H](CC(N)=O)C(=O)N[C@H](C(=O)N[C@@H](C)C(=O)N1CCC[C@H]1C(=O)N[C@@H](CCCNC(=N)N)C(=O)N[C@@H](CO)C(=O)N[C@@H](CCCCN)C(=O)N[C@H](C(=O)N[C@@H](CO)C(=O)N1CCC[C@H]1C(=O)N[C@@H](CCC(N)=O)C(=O)NCC(=O)N[C@@H](Cc1ccc(O)cc1)C(N)=O)[C@@H](C)CC)C(C)C)[C@@H](C)O [hADM]
- Average ADM recovery (N = 5) ([1]; 0 h): 100
- Loss of immune reactivity %/h ([1]; 2 h): 0.4 %/h
- Average ADM recovery (N = 5) ([1]; 2 h): 99.2
- Loss of immune reactivity %/h ([1]; 4 h): 0.8 %/h
- Average ADM recovery (N = 5) ([1]; 4 h): 96.4
- Loss of immune reactivity %/h ([1]; 8 h): 1.5 %/h
- Average ADM recovery (N = 5) ([1]; 8 h): 88.2
- Average loss of immune reactivity [1]: Average: 0.9%/h
- Average loss of immune reactivity ([1]; listed as ADM): 0.9 %/h
- plasma half life [2]: 22 min
